Drawing on BindingDB's records for doi:10.1021/acs.jmedchem.1c00926 (Biogen, 2022), this text covers IC50 for 14 molecules.

The nature of the assay: Inhibition of CD69 in human whole blood preincubated for 30 mins followed by anti-human IgD stimulation and measured after 18 to 22 hrs by flow cytometry. A general note: A flow cytometer gives signals particle by particle.
For the molecule `Cn1cc(Nc2nccc(-c3ccc4c(c3)CCCCC4NC(=O)c3nc(C(C)(C)C)no3)n2)cn1` (centres undefined) [3-(tert-butyl)-N-(2-(2-((1-methyl-1H-pyrazol-4-yl)amino)pyrimidin-4-yl)-6,7,8,9-tetrahydro-5H-benzo[7]annulen-5-yl)-1,2,4-oxadiazole-5-carboxamide ], 220 nM corresponded to half-maximal inhibition (IC50).

The molecule `Cn1cc(Nc2nccc(-c3ccc4c(c3)CCCCC4NC(=O)N3CC[C@@H](C(C)(C)C)C3)n2)cn1` (some centres undefined) had an IC50 of 40 nM.

In turn, `Cn1cc(Nc2nccc(-c3ccc4c(c3)CCCCC4NC(=O)c3cn(C(C)(C)C)nn3)n2)cn1` (centres undefined) [1-(tert-butyl)-N-(2-(2-((1-methyl-1H-pyrazol-4-yl)amino)pyrimidin-4-yl)-6,7,8,9-tetrahydro-5H-benzo[7]annulen-5-yl)-1H-1,2,3-triazole-4-carboxamide] gave an IC50 of 860 nM.

Molecule `Cn1cc(Nc2nccc(-c3ccc4c(c3)CCCC[C@H]4NC(=O)c3nc(C(C)(C)C)no3)n2)cn1` gave an IC50 of 59 nM.

In the case of `COCCN1CC[C@@H](NC(=O)c2cn(C(C)(C)C)nn2)c2ccc(-c3ccnc(Nc4cnn(C)c4)n3)cc2C1` [(R)-1-(tert-butyl)-N-(2-(2-methoxyethyl)-8-(2-((1-methyl-1H-pyrazol-4-yl)amino)pyrimidin-4-yl)-2,3,4,5-tetrahydro-1H-benzo[c]azepin-5-yl)-1H-1,2,3-triazole-4-carboxamide ], the IC50 was 800 nM.

As to `Cn1cc(Nc2nccc(-c3ccc4c(c3)CCCCC4NC(=O)c3nnc(C(C)(C)C)o3)n2)cn1` (centres undefined) [5-(tert-butyl)-N-(2-(2-((1-methyl-1H-pyrazol-4-yl)amino)pyrimidin-4-yl)-6,7,8,9-tetrahydro-5H-benzo[7]annulen-5-yl)-1,3,4-oxadiazole-2-carboxamide], the IC50 came to 390 nM.

`Cn1cc(Nc2nccc(-c3ccc4c(c3)CNCC[C@H]4NC(=O)c3cn(C(C)(C)C)nn3)n2)cn1` yielded an IC50 of 1600 nM.

On to `Cn1cc(Nc2nccc(-c3ccc4c(c3)CCCC[C@H]4NC(=O)c3nnc(C(C)(C)C)o3)n2)cn1` [(R)-5-(tert-butyl)-N-(2-(2-((1-methyl-1H-pyrazol-4-yl)amino)pyrimidin-4-yl)-6,7,8,9-tetrahydro-5H-benzo[7]annulen-5-yl)-1,3,4-oxadiazole-2-carboxamide ], for which the IC50 worked out at 330 nM.

The molecule `Cn1cc(Nc2nccc(-c3ccc4c(c3)CCCCC4NC(=O)c3cnc(C(C)(C)C)nc3)n2)cn1` (centres undefined) came in with an IC50 greater than 10000 nM.

The molecule `Cn1cc(Nc2nccc(-c3ccc4c(c3)CCNC[C@H]4NC(=O)c3cn(C(C)(C)C)nn3)n2)cn1` yielded an IC50 of 400 nM.

`Cn1cc(Nc2nccc(-c3ccc4c(c3)CCCC[C@H]4NC(=O)c3cn(C(C)(C)C)nn3)n2)cn1`: the IC50 was 104 nM.

The molecule `CN1CCc2cc(-c3ccnc(Nc4cnn(C)c4)n3)ccc2[C@H](NC(=O)c2cn(C(C)(C)C)nn2)C1` displayed an IC50 of 700 nM.

For the molecule `CC(C)OC1CN(C(=O)N[C@@H]2CCCCc3cc(-c4ccnc(Nc5cnn(C)c5)n4)ccc32)C1`, the midpoint of inhibition, the IC50, lay at 400 nM.

The molecule `Cc1c(NC(=O)c2cc3c(s2)CCCC3)cccc1-c1cn(C)c(=O)c(Nc2ccc(C3CN(C)CC(=O)N3C)cc2)n1` (centres undefined) displayed an IC50 of 1200 nM.

As a reminder, the IC50 is the concentration at which inhibition is half-maximal. A lower IC50 goes with inhibition by little substance.
